Tests used:
PD-L1 = experiment: Western blot of PD-L1 in Hs578T cells; type: cell-based, human; conditions: 48 hours, indicated concentrations of compound
Protocol: Hs578T cells (human triple negative breast cancer) were treated with the indicated concentration of COMPOUND 1 for 48 hours prior to harvesting. The “0” concentration is DMSO only (0.5%, same as was used for compound doses). […] Analysis occurred via western blot using the indicated antibodies. Quantification by densitometry of the bands from the western blot are presented for PD-L1/Vinculin (loading control) in the absence of interferon gamma, and glycosylated/non-glycosylated PD-L1 in the presence of interferon gamma.
The data presented here are consistent with the previous replicate in Hs578T cells, and the observation is preserved in another TNBC cell line, BT-20. COMPOUND 1 increases PD-L1 levels and the glycosylated PD-L1/non-glycosylated PD-L1 ratio. Methods are the same as the previous replicate, using the indicated doses.
Hs578T cells (human triple negative breast cancer) were treated with the indicated concentration of COMPOUND 6 for 48 hours before harvesting. The “0” concentration is DMSO only (0.5%, same as was used for compound doses). […] Analysis occurred via western blot using the indicated antibodies. PD-L1 protein levels were reduced relative to the vinculin loading control upon compound treatment. This effect is observed in the presence and absence of interferon gamma (IFN, 25 ng/mL in cell culture media during the drug treatment).
Hs578T cells (human triple negative breast cancer) were treated with the indicated concentration of COMPOUND 7 for 48 hours prior to harvesting. The “0” concentration is DMSO only (0.5%, same as was used for compound doses). […] Analysis occurred via western blot using the indicated antibodies. PD-L1 protein levels were reduced relative to the vinculin loading control upon 319-02 treatment.
The data presented here are consistent with the previous replicate in Hs578T cells. COMPOUND 7 reduces the PD-L1/vinculin loading control ratio. Methods are the same as the previous replicate, using the indicated doses.
(§1) Hs578T cells (human triple negative breast cancer) were treated with the indicated concentration of COMPOUND 8 for 48 hours and then harvested. The “0” concentration is DMSO only (0.5%, same as was used for compound doses). […] Analysis occurred via western blot using the indicated antibodies.
PD-L1-APC (BD Biosciences) and a matched isotype control were used to visualize PD-L1 cell surface expression by flow cytometry (1:250 dilution). As shown by western blot, the knockdown of WWP1 yielded increased PD-L1 protein levels, including an increase in the glycosylated band.
Total RNA was isolated using an RNeasy kit from Qiagen.

[1] = tested on: phosphorylated AKT and phosphorylated Ribosomal Protein S6; experiment: Western blot of AKT and S6 phosphorylation in Hs578T cells; type: cell-based, human; conditions: 48 hours, indicated concentrations
Protocol: Hs578T cells (human triple negative breast cancer) were treated with the indicated concentration of COMPOUND 1 for 48 hours prior to harvesting. The “0” concentration is DMSO only (0.5%, same as was used for compound doses). […] Analysis occurred via western blot using the indicated antibodies. Quantification by densitometry of the bands from the western blot are presented for phosphorylated AKT/Total AKT and phosphorylated Ribosomal Protein S6/Total Ribosomal Protein S6. COMPOUND 1 reduced both AKT and S6 phosphorylation relative to their respective total protein levels.
The data presented here are consistent with the previous replicate in Hs578T cells, and the observation is preserved in another TNBC cell line, BT-20. COMPOUND 1 reduces the phospho-AKT/vinculin loading control and phospho-S6/total S6 ratios. Methods are the same as the previous replicate, using the indicated doses.
Hs578T cells (human triple negative breast cancer) were treated with the indicated concentration of COMPOUND 6 for 48 hours prior to harvesting. The “0” concentration is DMSO only (0.5%, same as was used for compound doses). […] Analysis occurred via western blot using the indicated antibodies.
The data presented here are consistent with the previous replicate in Hs578T cells. COMPOUND 6 reduces the phospho-AKT/vinculin loading control and phospho-S6/total S6 ratios. Methods are the same as the previous replicate, using the indicated doses.
Hs578T cells (human triple negative breast cancer) were treated with the indicated concentration of COMPOUND 7 for 48 hours before harvesting. The “0” concentration is DMSO only (0.5%, same as was used for compound doses). […] Analysis occurred via western blot using the indicated antibodies.
The data presented here are consistent with the previous replicate in Hs578T cells. COMPOUND 7 reduces the phospho-S6/vinculin loading control ratio. Methods are the same as the previous replicate, using the indicated doses.
as §1

DU-145 cells = experiment: Cellular proliferation assay (MTS) in DU-145 cells; type: cell-based; conditions: Homo sapiens, 72 hours of incubation, read-out: IC50 values for selected compounds in DU-145 cells
Protocol: DU-145 cells were trypsinized, counted via Trypan blue method and resuspended in DMEM complete medium (10% FBS with Pen-strep antibiotics) as described in Lieu et al, Mol Cel Endorinol, 87:19-28, 1992. Cells were seeded at a density of 100 cells per well in 1001 volume of 96-well cell culture plate and were incubated overnight at 37° C. in 5% CO2 incubator. The next day, cells were given fresh media and the test compounds were added in different concentrations. After 72 hours of incubation, MTS reagent (procured from Promega) was added to the cells and they were incubated for an additional 2 hours. Finally, the plates read in the absorbance mode at 490 nm using an ELISA plate reader (Perkin Elmer Victor X3 plate reader). The % growth values were calculated as [(T−T0)/(C−T0)]×100, where T0 is the OD of cells at the time of compound addition, C is the vehicle control, T is the OD of the test concentrations at 72 hours. Percentage inhibition values were calculated using 100−([(T−T0)/(C−T0)]×100). IC50 values were calculated in graph pad prism software using dose response curve nonlinear regression method.

Row | Compound | PD-L1 glycosylation (glycosylated/non-glycosylated PD-L1 ratio) (PD-L1) | PD-L1 levels (relative to vinculin loading control) (PD-L1) | AKT phosphorylation (relative to total AKT or vinculin loading control) [1] | S6 phosphorylation (relative to total S6 or vinculin loading control) [1] | IC50 (DU-145 cells) [µM]
1 | C#Cc1ccc2c(C=O)cn(-c3ccccc3)c2c1 [Compound 1, 6-ethynyl-1-phenyl-1H-indole-3-carbaldehyde] | increases | increases | reduces | reduces | 13.5
2 | C#CCNC(=O)c1ccc2c(Cc3c[nH]c4ccccc34)c[nH]c2c1 [Compound 6, 3-((1H-indol-3-yl)methyl)-N-(prop-2-yn-1-yl)-1H-indole-6-carboxamide] |  | reduced | reduces | reduces | 8.08
3 | C#CCN(CCO)C(=O)c1ccc2c(Cc3c[nH]c4ccccc34)c[nH]c2c1 [Compound 7, 3-((1H-indol-3-yl)methyl)-N-(2-hydroxyethyl)-N-(prop-2-yn-1-yl)-1H-indole-6-carboxamide] |  | reduces | reduced | reduces | 5.01
